Experimental data published in ChEMBL document CHEMBL1862790, “Optimisation of fenarimol series for the treatment of Chagas disease”.
Values joined by “and” are separate entries in the source; they are usually repeats but may differ in a detail not shown here. Identical values can stand only once.

Legend:
[1] = tested on: L6; assay: (§1) DNDI: Cytotoxicity against L-6 rat myoblasts from skeletal muscle cells; settings: L6 rat skeletal muscle myoblast cells
[2] = tested on: Trypanosoma cruzi; assay: microbe, parasite or virus in culture; assay type: functional, organism-based, Tulahuen LacZ, Clone C4
[3] = tested on: Trypanosoma cruzi; assay: microbe, parasite or virus in culture; assay type: functional, Tulahuen LacZ, Clone C4
[4] = as §1
[5] = Trypanosoma cruzi, Tulahuen LacZ, Clone C4
[6] = L6 rat skeletal muscle myoblast cells
[7] = L6 rat skeletal muscle myoblast cells, IC50

Row | SMILES | IC50 [1] [nM] | IC50 [2, 5] [nM] | IC90 [3, 5] [nM] | IC50 [4, 6] [nM] | IC50 [2] | IC90 [3] [nM] | IC50 [4, 7] [nM] | IC50 ([4]; l6, IC50) [nM]
1 | OC(c1ccc(Cl)cc1)(c1ccc(Cl)cc1)c1cccnc1 | 49000 | 90 | 27000 |  |  |  |  | 
2 | OC(c1ccc(Cl)cc1)(c1cccnc1)c1ccccc1Cl (stereo unspecified) | 61300 | 270 |  | 60000 | 210 nM |  |  | 
3 | Cc1ccc(C(O)(c2ccc(Cl)cc2)c2cccnc2)cc1 (stereo unspecified) | 61200 | 17 | 60 |  |  |  |  | 
4 | OC(c1ccc(Cl)cc1)(c1cccnc1)c1ccc(C(F)(F)F)cc1F (stereo unspecified) | 57400 | 21 | 70 |  |  |  |  | 
5 | O=S(=O)(c1ccccc1)N1CCN(C(c2ccc(Cl)cc2)c2cccnc2)CC1 (stereo unspecified) | 42700 | 8.5 | 39 |  |  |  |  | 
6 | OC(c1ccc(C(F)(F)F)cc1)(c1ccc(C(F)(F)F)cc1)c1cccnc1 | 50600 | 14.9 | 38 |  |  |  |  | 
7 | Fc1cc(Cl)ccc1C(c1cncnc1)N1CCN(c2ccccc2)CC1 (stereo unspecified) | 62700 | 78 | 270 |  |  |  |  | 
8 | O=S(=O)(c1ccc(Cl)cc1)N1CCN(C(c2ccc(Cl)cc2)c2cccnc2)CC1 (stereo unspecified) | 23000 | 24 | 97 |  |  |  |  | 
9 | CC(C)CNC(c1ccc(Cl)cc1)(c1cccnc1)c1ccccc1Cl (stereo unspecified) | 59200 | 606 | 1320 |  |  |  |  | 
10 | O=C(Oc1ccccc1)N1CCN(C(c2cccnc2)c2ccc(Cl)cc2F)CC1 (stereo unspecified) | 59100 | 4.5 | 12 |  |  |  |  | 
11 | CC(C)(C)C(=O)N1CCN(C(c2cccnc2)c2ccc(Cl)cc2F)CC1 (stereo unspecified) | 60300 | 19 | 88 |  |  |  |  | 
12 | CN(C)c1ccc(C(O)(c2ccc(C(F)(F)F)cc2)c2cccnc2)cc1 (stereo unspecified) | 59100 | 6 | 28 |  |  |  |  | 
13 | OC(c1cccnc1)(c1ccc(Cl)cc1F)c1ccc(Cl)cc1F | 56300 | 16 | 36 |  |  |  |  | 
14 | Fc1cc(Cl)ccc1C(c1cccnc1)N1CCN(c2ncccn2)CC1 (stereo unspecified) | 59000 | 26 | 92 |  |  |  |  | 
15 | COc1ccc(C(O)(c2ccc(Cl)cc2)c2cccnc2)cc1 (stereo unspecified) | 68100 | 40 | 180 |  |  |  |  | 
16 | CC(C)(C)C(=O)N1CCN(C(c2cccnc2)c2ccc(C(F)(F)F)cc2F)CC1 (stereo unspecified) | 72900 | 23.5 | 68.5 |  |  |  |  | 
17 | COc1ccccc1N1CCN(C(c2cncnc2)c2ccc(Cl)cc2F)CC1 (stereo unspecified) | 59800 | 65 | 190 |  |  |  |  | 
18 | O=C(C1CCCCC1)N1CCC(NC(c2ccc(C(F)(F)F)cc2)c2cnccn2)CC1 (stereo unspecified) | 92400 |  |  |  | 250 nM | 860 |  | 
19 | OC(c1ccc(Cl)cc1)(c1ccc(Br)cc1)c1cccnc1 (stereo unspecified) | 57000 | 31 | 79 |  |  |  |  | 
20 | O=C(Nc1ccc(Cl)cc1)N1CCN(C(c2cncnc2)c2ccc(Cl)cc2F)CC1 (stereo unspecified) | 33600 | 10 | 30 |  |  |  |  | 
21 | CC(C)Oc1ccc(C(O)(c2ccc(C(F)(F)F)cc2)c2cccnc2)cc1 (stereo unspecified) | 47600 | 3.73 | 7 |  |  |  |  | 
22 | O=C(c1ccccc1)N1CCN(C(c2ccc(Cl)cc2)c2cccnc2)CC1 (stereo unspecified) | 61400 | 68 | 160 |  |  |  |  | 
23 | CC(C)Oc1ncc(C(O)(c2cccnc2)c2ccc(Cl)cc2F)cn1 (stereo unspecified) | 89500 | 7.7 | > 10 |  |  |  |  | 
24 | COc1ccccc1N1CCN(C(c2ccc(Cl)cc2)c2cccnc2)CC1 (stereo unspecified) | 61100 | 20 | 42 |  |  |  |  | 

Row | SMILES | IC50 [1] [nM] | IC50 [2, 5] [nM] | IC90 [3, 5] [nM] | IC50 [4, 6] [nM] | IC50 [2] | IC90 [3] [nM] | IC50 [4, 7] [nM] | IC50 ([4]; l6, IC50) [nM]
25 | O=C(Nc1ccccc1)N1CCN(C(c2ccc(Cl)cc2)c2cccnc2)CC1 (stereo unspecified) | 67200 | 9 | 34 |  |  |  |  | 
26 | CC(C)(C)OC(=O)N1CCN(C(c2cccnc2)c2ccc(Cl)cc2F)CC1 (stereo unspecified) | 43500 | 20 | 94 |  |  |  |  | 
27 | CC(C)C(=O)Nc1ncc(C(O)(c2ccc(Cl)cc2)c2cccnc2)s1 (stereo unspecified) | 56600 | 17 | 88 |  |  |  |  | 
28 | OC(c1ccc(Cl)cc1)(c1ccc(Br)cc1)c1cncnc1 (stereo unspecified) | 58700 | 144 | 460 |  |  |  |  | 
29 | OC(c1ccc(Cl)cc1)(c1cccnc1)c1cccc(Br)c1 (stereo unspecified) | 54100 | 54 | 80 |  |  |  |  | 
30 | CC(C)CCON=C(Cc1cccnc1)c1ccc(Cl)cc1Cl | 58700 |  |  |  |  |  | 61000 | 
31 | OC(c1ccc(Cl)cc1)(c1ccc(C(F)(F)F)cc1)c1cccnc1 (stereo unspecified) | 56400 | 8.2 | 30 |  |  |  |  | 
32 | O=C(Nc1ccccc1)N1CCN(C(c2cccnc2)c2ccc(Cl)cc2F)CC1 (stereo unspecified) | 45100 | 6.2 | 24 |  |  |  |  | 
33 | CC(C)c1ccc(NC(=O)N2CCN(C(c3cncnc3)c3ccc(Cl)cc3F)CC2)cc1 (stereo unspecified) | 61900 | 6.5 | 16 |  |  |  |  | 
34 | OC(c1ccc(Cl)cc1)(c1cccnc1)c1ccccc1Br (stereo unspecified) | 55200 | 76 | 172 |  |  |  |  | 
35 | Cc1noc(N2CCN(C(c3cccnc3)c3ccc(C(F)(F)F)cc3F)CC2)n1 (stereo unspecified) | 51200 | 16.5 | 33 |  |  |  |  | 
36 | OC(c1ccc(Br)cc1)(c1ccc(C(F)(F)F)cc1)c1cccnc1 (stereo unspecified) | 54700 | 20 | 30 |  |  |  |  | 
37 | COc1ccccc1N1CCN(C(c2ccc(C(F)(F)F)cc2)c2cnccn2)CC1 (stereo unspecified) | 61700 | 240 | 420 |  |  |  |  | 
38 | COc1ccccc1N1CCN(C(c2ccc(OC(C)C)cc2)c2cccnc2)CC1 (stereo unspecified) | 77400 | 28 | 90 |  |  |  |  | 
39 | O=C(c1ccccc1)N1CCN(C(c2cccnc2)c2ccc(Cl)cc2F)CC1 (stereo unspecified) | 68600 | 70 | 220 |  |  |  |  | 
40 | Clc1ccc(C(c2cccnc2)c2ccccc2Cl)cc1 (stereo unspecified) | 62600 | 230 | 2570 |  |  |  |  | 
41 | COc1cccc(C(O)(c2ccc(Cl)cc2)c2cccnc2)c1 (stereo unspecified) | 85600 | 61 | 315 |  |  |  |  | 
42 | O=C(Nc1ccc(Cl)cc1)N1CCN(C(c2ccc(Cl)cc2)c2cncnc2)CC1 (stereo unspecified) | 58800 | 22 | 65 |  |  |  |  | 
43 | OC(c1ccc(Cl)cc1)(c1cccnc1)c1ccc(F)cc1F (stereo unspecified) | 70200 | 16.4 | 29 |  |  |  |  | 
44 | NC(c1ccc(Cl)cc1)(c1cccnc1)c1ccccc1Cl (stereo unspecified) | 76000 | 90 | 5050 |  |  |  |  | 
45 | N#CC(c1ccc(Cl)cc1)(c1cccnc1)c1ccccc1Cl (stereo unspecified) | 56800 | 50 | 220 |  |  |  |  | 
46 | OC(c1ccc(Cl)cc1)(c1cccnc1)c1cccs1 (stereo unspecified) | 67700 | 13 | 108 |  | 17 nM | 99 | > 100000 | 
47 | CS(=O)(=O)N1CCN(C(c2cccnc2)c2ccc(C(F)(F)F)cc2F)CC1 (stereo unspecified) | 76800 | 27.5 | 82.5 |  |  |  |  | 
48 | CC(C)(C)OC(=O)N1CCN(C(c2cncnc2)c2ccc(Cl)cc2F)CC1 (stereo unspecified) | 63900 | 24 | 420 |  |  |  |  | 

Row | SMILES | IC50 [1] [nM] | IC50 [2, 5] [nM] | IC90 [3, 5] [nM] | IC50 [4, 6] [nM] | IC50 [2] | IC90 [3] [nM] | IC50 [4, 7] [nM] | IC50 ([4]; l6, IC50) [nM]
49 | CON=C(Cc1cccnc1)c1ccc(Cl)cc1Cl | 81000 |  |  |  | 210 nM and 470 nM and 294 nM |  | > 100000 | 
50 | Cc1ccc(C(O)(c2ccc(OC(C)C)cc2)c2cccnc2)c(F)c1 (stereo unspecified) | 62600 | 3.2 | 13 |  |  |  |  | 
51 | CC(C)(C)OC(=O)N1CCN(C(c2ccc(C(F)(F)F)cc2)c2cccnc2)CC1 (stereo unspecified) | 56200 | 17 | 54 |  |  |  |  | 
52 | O=C(C1CCCCC1)N1CCN(C(c2cccnc2)c2ccc(Cl)cc2F)CC1 (stereo unspecified) | 61700 | 28 | 200 |  |  |  |  | 
53 | Fc1cc(Cl)ccc1C(c1cccnc1)N1CCN(c2ccccc2)CC1 (stereo unspecified) | 57600 | 18 | 40 |  |  |  |  | 
54 | O=C(Oc1ccccc1)N1CCN(C(c2ccc(Cl)cc2)c2cccnc2)CC1 (stereo unspecified) | 55700 | 8 | 32 |  |  |  |  | 
55 | OC(c1ccc(Cl)cc1)(c1cccnc1)c1ccccc1C(F)(F)F (stereo unspecified) | 59200 | 122 |  |  |  |  |  | 
56 | CC(C)(C)C(=O)N1CCN(C(c2ccc(C(F)(F)F)cc2)c2cccnc2)CC1 (stereo unspecified) | 58600 | 30 | 127 |  |  |  |  | 
57 | O=S(=O)(C1CCCCC1)N1CCN(C(c2ccc(Cl)cc2)c2cccnc2)CC1 (stereo unspecified) | 55800 | 10 | 35 |  |  |  |  | 
58 | CC(C)Oc1ccc(C(O)(c2ccc(OC(C)C)cc2)c2cccnc2)cc1 | 61400 | 16 | 25 |  |  |  |  | 
59 | Clc1ccc(C(c2cccnc2)N2CCN(c3ccccc3)CC2)cc1 (stereo unspecified) | 67400 | 34 | 84 |  |  |  |  | 
60 | Cc1ccc(C(O)(c2ccc(Cl)cc2)c2cncnc2)cc1 (stereo unspecified) | 67400 |  | 158 |  | 68 nM and 23.8 nM | 310 | 79300 | 
61 | OC(c1ccc(C(F)(F)F)cc1)(c1cccnc1)c1cc2ccccc2s1 (stereo unspecified) | 58700 | 20 | 110 |  |  |  |  | 
62 | CC(C)Oc1ccc(C(O)(c2cccnc2)c2ccc(Cl)cc2F)cc1 (stereo unspecified) | 56000 | 1.3 | 3 |  |  |  |  | 
63 | CC(C)c1ccc(S(=O)(=O)N2CCN(C(c3ccc(Cl)cc3)c3cccnc3)CC2)cc1 (stereo unspecified) | 80200 | 12 | 57 |  |  |  |  | 
64 | FC(F)(F)c1ccc(C(NC2CCN(c3nccs3)CC2)c2cccnc2)cc1 (stereo unspecified) | 54900 |  |  |  | 9.5 nM | 29 |  | 
65 | Clc1ccc(C(c2ccc(Cl)cc2)c2cncnc2)cc1 | 70100 | 682 | 6780 |  |  |  |  | 
66 | OC(c1ccc(Cl)cc1)(c1ccc(Cl)cc1)c1cncnc1 | 47700 | 224 |  |  |  |  |  | 
67 | OC(c1ccc(Cl)cc1)(c1cccnc1)c1cccc(C(F)(F)F)c1 (stereo unspecified) | 60400 | 67 | 162 |  |  |  |  | 
68 | CC1CS(=O)(=O)CCN1/N=C/c1ccc([N+](=O)[O-])o1 (stereo unspecified) [NIFURTIMOX] |  | 230 | 820 |  |  |  |  | > 100000
69 | OC(c1ccc(F)cc1)(c1cncnc1)c1ccccc1Cl (stereo unspecified) [NUARIMOL] |  | 1140 | 19500 | > 100000 |  |  |  | 
70 | CC1=C(C(=O)Nc2ccccc2)S(=O)(=O)CCO1 [OXYCARBOXIN] |  | 65100 | > 100000 | > 100000 |  |  |  | 
71 | COC(=O)N(OC)c1ccccc1COc1ccn(-c2ccc(Cl)cc2)n1 [PYRACLOSTROBIN] |  | 6460 | > 10000 | 43400 |  |  |  | 
